Test results reported in US20250011313A1, “CCR6 RECEPTOR MODULATORS” (Idorsia Pharmaceuticals Ltd, priority 2021, published 2025).

Biological target: T1, human CCR6 (Homo sapiens, UniProt P51684)
T1 construct: expressed in transfected cells; host or cells: HEK-293
T1 sequence (P51684 1-374): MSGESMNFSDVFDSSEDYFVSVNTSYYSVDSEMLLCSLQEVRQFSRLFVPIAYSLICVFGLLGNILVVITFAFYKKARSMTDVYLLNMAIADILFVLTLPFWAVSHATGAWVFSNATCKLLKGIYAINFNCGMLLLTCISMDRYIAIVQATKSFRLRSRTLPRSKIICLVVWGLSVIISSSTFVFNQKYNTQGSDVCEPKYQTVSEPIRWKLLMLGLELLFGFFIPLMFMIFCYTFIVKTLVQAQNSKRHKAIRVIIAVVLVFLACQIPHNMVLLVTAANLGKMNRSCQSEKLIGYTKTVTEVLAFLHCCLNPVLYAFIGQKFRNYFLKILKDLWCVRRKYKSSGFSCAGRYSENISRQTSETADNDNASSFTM
Assay: FLIPR assay (calcium flux, inhibition of CCL20 agonist response)
Format: cell-based
Conditions: HEK-293 cells expressing human CCR6; agonist CCL20 10 nM; 30 min preincubation; mean values if determined several times
Description: FLIPR assay: The bioactivity of compounds is tested in a fluorometric imaging plate reader (FLIPR: Molecular Devices) using engineered HEK-293 cells expressing the human CCR6 (GenBank: AY242126). Frozen cells are plated on Poly-L-Lysine precoated 384-well plates 2 days prior to bioassay in DMEM medium supplemented with 10% FCS and 1% Penicillin-Streptomycin. At the day of bioassay, cell supernatant is discarded and cells are dye loaded for 30 minutes at room temperature in the dark with Fluo-8-AM (Focus Biomolecules) in Hanks Balanced Salt Solution (Gibco), buffered with 20 mM Hepes at pH 6.75 and supplemented with 0.05% BSA. This buffer, but lacking the dye, is also used for washing and compound dilution steps (assay buffer). Cells are washed free of excess dye with a wash-station (Biotek), leaving 40 microliter of assay buffer at the end. Cells were incubated for 15 minutes at room temperature in the dark, before adding compounds. Stock solutions of test compounds are made up at a concentration of 10 mM in DMSO, and serially diluted first in DMSO and then transferred in assay buffer to concentrations required for inhibition dose response curves. After a 45 minute incubation period in assay buffer at room temperature, 10 microliters of each compound dilution are transferred from a compound plate to the plate containing the recombinant cells in the FLIPR instrument according to the manufacturer's instructions. After cells and compounds were preincubated for 30 minutes at room temperature in the dark, 10 microliter agonist CCL20 (Peprotech) at a final concentration of 10 nM is added, again using the FLIPR instrument. Changes in fluorescence are monitored before and after addition of the test compounds and agonist. Emission peak values above base level after CCL20 addition are exported after base line subtraction. The calculated IC50 values may fluctuate depending on the daily assay performance. Fluctuations of this kind are known to those skilled in the art. In the case where IC50 values have been determined several times for the same compound, mean values are given.

IC50 | SMILES
52.2 nM | CC(=O)NC1CCC(c2nc(-c3cncc([C@@](O)(c4ccc(C(C)C)cc4)C4(C)CN(C)C4)c3)no2)CC1 (single isomer, unassigned) [Example 8, cis- or trans-N-[4-(3-{5-[(R)-(1,3-Dimethyl-azetidin-3-yl)-hydroxy-(4-isopropyl-phenyl)-methyl]-pyridin-3-yl}-[1,2,4]oxadiazol-5-yl)-cyclohexyl]-acetamide]
71.5 nM | CC(C)c1ccc([C@](O)(c2cncc(C#CC(C)(O)c3ccncn3)c2)C2(C)CN(C)C2)cc1 (single isomer, unassigned) [Example 10, (R)- or (S)-4-{5-[(R)-(1,3-Dimethyl-azetidin-3-yl)-hydroxy-(4-isopropyl-phenyl)-methyl]-pyridin-3-yl}-2-pyrimidin-4-yl-but-3-yn-2-ol]
83 nM | CN1CC(C)([C@](O)(c2ccc(CC(F)(F)F)cc2)c2cncc(-c3noc([C@H]4CC[C@H](O)CC4)n3)c2)C1 [Example 1, trans-4-[3-(5-{(R)-(1,3-Dimethyl-azetidin-3-yl)-hydroxy-[4-(2,2,2-trifluoro-ethyl)-phenyl]-methyl}-pyridin-3-yl)-[1,2,4]oxadiazol-5-yl]-cyclohexanol]
140 nM | CN1CC(C)([C@](O)(c2ccc(CC(F)(F)F)cc2)c2cncc(-c3noc(C45CC(CO)(C4)C5)n3)c2)C1 [Example 2, (R)-(1,3-Dimethyl-azetidin-3-yl)-{5-[5-(3-hydroxymethyl-bicyclo[1.1.1]pent-1-yl)-[1,2,4]oxadiazol-3-yl]-pyridin-3-yl}-[4-(2,2,2-trifluoro-ethyl)-phenyl]-methanol]
55.7 nM | CC(=O)NC12CC(c3nc(-c4cncc([C@@](O)(c5ccc(C(C)C)cc5)C5(C)CN(C)C5)c4)no3)(C1)C2 [Example 3, N-[3-(3-{5-[(R)-(1,3-Dimethyl-azetidin-3-yl)-hydroxy-(4-isopropyl-phenyl)-methyl]-pyridin-3-yl}-[1,2,4]oxadiazol-5-yl)-bicyclo[1.1.1]pent-1-yl]-acetamide]
23.9 nM | CC(C)c1ccc([C@](O)(c2cncc(-c3noc(C45CCC(O)(CC4)CC5)n3)c2)C2(C)CN(C)C2)cc1 [Example 4, 4-(3-{5-[(R)-(1,3-Dimethyl-azetidin-3-yl)-hydroxy-(4-isopropyl-phenyl)-methyl]-pyridin-3-yl}-[1,2,4]oxadiazol-5-yl)-bicyclo[2.2.2]octan-1-ol]
144 nM | CN1CC(C)([C@](O)(c2ccc(CC(F)(F)F)cc2)c2cncc(-c3nc(C(C)(C)CO)no3)c2)C1 [Example 5, 2-[5-(5-{(R)-(1,3-Dimethyl-azetidin-3-yl)-hydroxy-[4-(2,2,2-trifluoro-ethyl)-phenyl]-methyl}-pyridin-3-yl)-[1,2,4]oxadiazol-3-yl]-2-methyl-propan-1-ol]
111 nM | CC(=O)N1CC2(CC(c3nc(-c4cncc([C@@](O)(c5ccc(C(C)C)cc5)C5(C)CN(C)C5)c4)no3)C2)C1 [Example 6, 1-[6-(3-{5-[(R)-(1,3-Dimethyl-azetidin-3-yl)-hydroxy-(4-isopropyl-phenyl)-methyl]-pyridin-3-yl}-[1,2,4]oxadiazol-5-yl)-2-aza-spiro[3.3]hept-2-yl]-ethanone]
78.8 nM | CCC(=O)N[C@H]1CC[C@H](c2nc(-c3cncc([C@@](O)(c4ccc(C(C)C)cc4)C4(C)CN(C)C4)c3)no2)CC1 [Example 7, trans-N-[4-(3-{5-[(R)-(1,3-Dimethyl-azetidin-3-yl)-hydroxy-(4-isopropyl-phenyl)-methyl]-pyridin-3-yl}-[1,2,4]oxadiazol-5-yl)-cyclohexyl]-propionamide]
146 nM | CN1CC(C)([C@](O)(c2ccc(CC(F)(F)F)cc2)c2cncc(-c3nc(C45CC(CO)(C4)C5)no3)c2)C1 [Example 9, (R)-(1,3-Dimethyl-azetidin-3-yl)-{5-[3-(3-hydroxymethyl-bicyclo[1.1.1]pent-1-yl)-[1,2,4]oxadiazol-5-yl]-pyridin-3-yl}-[4-(2,2,2-trifluoro-ethyl)-phenyl]-methanol]
28.7 nM | CC(C)c1ccc([C@](O)(c2cncc(C#C[C@H]3CC[C@H](O)CC3)c2)C2(C)CN(C)C2)cc1 [Example 11, trans-4-{5-[(R)-(1,3-Dimethyl-azetidin-3-yl)-hydroxy-(4-isopropyl-phenyl)-methyl]-pyridin-3-ylethynyl}-cyclohexanol]
25.4 nM | CC(C)c1ccc([C@](O)(c2cncc(C#C[C@H]3CC[C@@H](O)CC3)c2)C2(C)CN(C)C2)cc1 [Example 12, cis-4-{5-[(R)-(1,3-Dimethyl-azetidin-3-yl)-hydroxy-(4-isopropyl-phenyl)-methyl]-pyridin-3-ylethynyl}-cyclohexanol]
37.5 nM | CC(C)c1ccc([C@](O)(c2cncc(-c3noc(C45CCC(C(N)=O)(CC4)CC5)n3)c2)C2(C)CN(C)C2)cc1 [Example 13, 4-(3-{5-[(R)-(1,3-Dimethyl-azetidin-3-yl)-hydroxy-(4-isopropyl-phenyl)-methyl]-pyridin-3-yl}-[1,2,4]oxadiazol-5-yl)-bicyclo[2.2.2]octane-1-carboxylic acid amide]
46.3 nM | CC(C)c1ccc([C@](O)(c2cncc(-c3noc(C4CCC(C(N)=O)CC4)n3)c2)C2(C)CN(C)C2)cc1 (stereo partly drawn) [Example 14, 4-(3-{5-[(R)-(1,3-Dimethyl-azetidin-3-yl)-hydroxy-(4-isopropyl-phenyl)-methyl]-pyridin-3-yl}-[1,2,4]oxadiazol-5-yl)-cyclohexanecarboxylic acid amide]
65.3 nM | CN1CC(C)([C@](O)(c2ccc(CC(F)(F)F)cc2)c2cncc(-c3noc(C45CCC(C(N)=O)(CC4)CC5)n3)c2)C1 [Example 15, 4-[3-(5-{(R)-(1,3-Dimethyl-azetidin-3-yl)-hydroxy-[4-(2,2,2-trifluoro-ethyl)-phenyl]-methyl}-pyridin-3-yl)-[1,2,4]oxadiazol-5-yl]-bicyclo[2.2.2]octane-1-carboxylic acid amide]
226 nM | CC(=O)N[C@H]1CC[C@H](c2nc(-c3cncc([C@@](O)(c4ccc(CC(F)(F)F)cc4)C4(C)CN(C)C4)c3)no2)CC1 [Example 16, N-{4-[3-(5-{(R)-(1,3-Dimethyl-azetidin-3-yl)-hydroxy-[4-(2,2,2-trifluoro-ethyl)-phenyl]-methyl}-pyridin-3-yl)-[1,2,4]oxadiazol-5-yl]-trans-cyclohexyl}-acetamide]
